Experimental data taken from patent US20190223450A1, “MICROALGAE EXTRACT FOR AGRICULTURAL USE” (priority 2015, published 2019).

Assays:
[1] = test system: pathogenesis-related (PR) proteins; test: Induced resistance in vine: resistance-linked metabolites and pathogenesis-related (PR) proteins; format: in vivo, vine plants; conditions: for production of metabolites linked to resistance phenomena / response: vine plants
Protocol: (§1) The efficacy of the treatments using the products listed above was assessed on the basis of the induced resistance using foliar discs and potted vine plants. The rate of induced resistance was determined on the basis of the increase in the content of pathogenesis-related (PR) proteins including: peroxidase, polyphenoloxidase, Beta 1,3-glucanase, phenylalanine ammonia-lyase, stilbene synthase, PR-1 protein and caffeoyl coenzyme A-3-O-methyltransferase.

zoospores = test: Inhibition of zoospores (mobility); design: species or system Plasmopara viticola
Plasmopara viticola = test: Protection of vine foliar discs and potted vine plants against Plasmopara viticola (peronospora); format: in vivo; conditions: vine plants affected by peronospora
Protocol: The field tests were performed on vine plants affected by peronospora. The potential of certain biocontrol and plant extract products for protection against Plasmopara viticola (peronospora) was also assessed, since some chemical and natural substances can reduce the plants' susceptibility. In particular, comparisons were performed on the use of commercial products or experimental products: • EXPERIMENTAL PRODUCT 1 (EP1) yeast extract • EXPERIMENTAL PRODUCT 2 (EP2) plant extract • EXPERIMENTAL PRODUCT 3 (EP3) Aureobasidium pullulans • CANG extract of Solidago canadensis • P E N extract of mycelium of Penicillium crysogenum • LIN linoleic acid • BABA—chemical elicitors of 3-dl-β-aminobutyric acid • BTH—chemical elicitors of benzothiadiazole • CP—comparator product: extract of microalgae • MBGPT1—alginate extract of Phaeodactylum tricornutum obtained according to the method described above • chrysolaminarin from microalga
as §1

Row | Structure (SMILES) | production of metabolites linked to resistance phenomena / response [1] | formation of necrotic spots and PR proteins ([1]; immediately after inoculation) | inhibition of the zoospores (mobility) (zoospores) | protection (Plasmopara viticola)
1 | c1ccc2snnc2c1 [BTH, benzothiadiazole] | induced the production of a wide range of metabolites linked to resistance phenomena | – | – | –
2 | CC(N)CC(=O)O (racemic) [BABA, 3-dl-β-aminobutyric acid] | – | caused the formation of necrotic spots and PR proteins immediately after inoculation | unable to inhibit the zoospores | –
3 | CCCCC/C=C\C/C=C\CCCCCCCC(=O)O [LIN, linoleic acid] | induced the production of a wide range of metabolites linked to resistance phenomena | – | – | insignificant protection
